Assay results as given in patent US9278914B2, “SARMs and method of use thereof” (UNIVERSITY OF TENNESSEE RESEARCH FOUNDATION, priority 2004, dated 2016).

Assays:
[1] = tested on: finishing pigs; test: Growth performance and carcass composition of finishing pigs; assay type: in vivo, pig; conditions: for lb FFL: fat free lean; for L side / R side: carcass; for lbs FFL/D: fat free lean gain per day
Excerpt: Pigs were blocked by weight and allotted to one of four treatments with ten replicate pens per treatment. Pigs were housed with one pig per pen in an environmentally controlled finishing barn with 4 ft×4 ft slatted pens.
All animals were fed a corn-soybean meal diet with 1% corn oil. […] Final SARM concentrations were 1, 3, and 10 ppm. All animals were fed their respective diets for the duration of the study.
Pigs were allowed ad libitum access to feed and water. Pigs and feeders were weighed on day 7, 14, 21, and 28 to calculate average daily gain (ADG), average daily feed intake (ADFI), and feed-to-gain ratio (F/G or F:G). Each pen served as an experimental unit for all statistical analysis.
Pigs were slaughtered at the Kansas State University Meats Laboratory at the end of the study for collection of individual carcass data. At 24 hours postmortem, the right side of the carcass was frozen at −40° C. for approximately […]. After freezing, sides were ground once through a grinder equipped with a 19 mm die, then mixed and ground through a second grinder equipped with a 9.5 mm die. A sub sample of ground carcass was then chemically analyzed to determine percentages of crude protein, moisture/dry matter, lipid, and ash. Carcass measurements were done on the left side of the carcass, and a sample of lean and fat was taken from the longissimus at approximately the 10th rib.
The data were analyzed as a randomized complete-block design. Analysis of variance was performed by using the MIXED procedure of SAS. Linear and quadratic contrasts were used to evaluate the effects of increasing the level of the SARM on growth and carcass performance.

[2] = target: CYP1A2 (Homo sapiens (Human), UniProt P05177); test: In vitro CYP inhibition assay; assay type: biochemical
Sequence of CYP1A2 (P05177 whole entry): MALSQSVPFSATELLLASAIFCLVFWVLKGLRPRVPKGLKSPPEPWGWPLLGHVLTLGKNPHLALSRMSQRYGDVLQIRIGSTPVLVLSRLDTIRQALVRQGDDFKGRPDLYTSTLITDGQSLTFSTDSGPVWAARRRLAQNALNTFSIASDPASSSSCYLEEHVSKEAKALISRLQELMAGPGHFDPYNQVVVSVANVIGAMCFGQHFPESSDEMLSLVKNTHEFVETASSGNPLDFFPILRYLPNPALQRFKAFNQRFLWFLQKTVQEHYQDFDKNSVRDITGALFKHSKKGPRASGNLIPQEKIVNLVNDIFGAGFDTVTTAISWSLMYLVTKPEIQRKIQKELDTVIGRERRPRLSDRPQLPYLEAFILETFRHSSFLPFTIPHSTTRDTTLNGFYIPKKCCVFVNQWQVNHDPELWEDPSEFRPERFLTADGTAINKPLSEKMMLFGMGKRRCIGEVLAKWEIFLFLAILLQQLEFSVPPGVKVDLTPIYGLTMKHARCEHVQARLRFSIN
Protocol: Averages (minus background) and IC50 values were calculated.

C[C@](O)(COc1ccc(Cl)c(F)c1)C(=O)Nc1ccc(C#N)c(C(F)(F)F)c1 [S-II, (S)-3-(4-chloro-3-fluorophenoxy)-N-(4-cyano-3-(trifluoromethyl)phenyl)-2-hydroxy-2-methylpropanamide]
Carcass Wt ([1]; 1 PPM): 201
Live Wt ([1]; 1 PPM): 289
Carcass Wt ([1]; 3 PPM): 200
Live Wt ([1]; 3 PPM): 288
Carcass Wt ([1]; 10 PPM): 197
Live Wt ([1]; 10 PPM): 281
ADFI (average daily feed intake) ([1]; Day 0-7, 1 ppm in diet): 7.56
ADG (average daily gain) ([1]; Day 0-7, 1 ppm in diet): 2.89
ADFI (average daily feed intake) ([1]; Day 0-7, 3 ppm in diet): 7.54
ADG (average daily gain) ([1]; Day 0-7, 3 ppm in diet): 2.37
ADG (average daily gain) ([1]; Day 0-7, 10 ppm in diet): 2.17
ADFI (average daily feed intake) ([1]; Day 0-7, 10 ppm in diet, listed as SARM): 7.4
ADG (average daily gain) ([1]; Day 0-28 (total), 1 ppm in diet): 2.74
ADG (average daily gain) ([1]; Day 0-28 (total), 3 ppm in diet, listed as SARM): 2.7
ADG (average daily gain) ([1]; Day 0-28 (total), 10 ppm in diet, listed as SARM): 2.5
ADFI (average daily feed intake) ([1]; Day 0-28, 1 ppm in diet): 8.28
ADFI (average daily feed intake) ([1]; Day 0-28, 3 ppm in diet): 8.38
ADFI (average daily feed intake) ([1]; Day 0-28, 10 ppm in diet): 7.85
ADFI (average daily feed intake) ([1]; Day 8-14, 1 ppm in diet): 8.74
ADG (average daily gain) ([1]; Day 8-14, 1 ppm in diet): 2.59
ADG (average daily gain) ([1]; Day 8-14, 3 ppm in diet): 2.65
ADFI (average daily feed intake) ([1]; Day 8-14, 3 ppm in diet, listed as SARM): 8.5
ADFI (average daily feed intake) ([1]; Day 8-14, 10 ppm in diet): 7.89
ADG (average daily gain) ([1]; Day 8-14, 10 ppm in diet): 2.37
ADFI (average daily feed intake) ([1]; Day 15-21, 1 ppm in diet): 8.33
ADG (average daily gain) ([1]; Day 15-21, 1 ppm in diet): 2.33
ADFI (average daily feed intake) ([1]; Day 15-21, 3 ppm in diet): 8.61
ADG (average daily gain) ([1]; Day 15-21, 3 ppm in diet): 2.65
ADFI (average daily feed intake) ([1]; Day 15-21, 10 ppm in diet): 7.78
ADG (average daily gain) ([1]; Day 15-21, 10 ppm in diet): 2.43
ADFI (average daily feed intake) ([1]; Day 22-28, 1 ppm in diet): 8.51
ADG (average daily gain) ([1]; Day 22-28, 1 ppm in diet): 3.15
ADFI (average daily feed intake) ([1]; Day 22-28, 3 ppm in diet): 8.89
ADG (average daily gain) ([1]; Day 22-28, 3 ppm in diet): 3.15
ADFI (average daily feed intake) ([1]; Day 22-28, 10 ppm in diet): 8.33
ADG (average daily gain) ([1]; Day 22-28, 10 ppm in diet): 3.03
Gain ([1]; Days 0-7, 1 PPM): 20.3
Gain ([1]; Days 0-7, 3 PPM): 16.6
Gain ([1]; Days 0-7, 10 PPM): 15.2
Gain ([1]; Days 8-14, 1 PPM): 18.2
Gain ([1]; Days 8-14, 3 PPM): 18.6
Gain ([1]; Days 8-14, 10 PPM): 16.6
Gain ([1]; Days 15-21, 1 PPM): 16.3
Gain ([1]; Days 15-21, 3 PPM): 18.5
Gain ([1]; Days 15-21, 10 PPM): 17.0
Gain ([1]; Days 22-28, 1 PPM): 22.0
Gain ([1]; Days 22-28, 3 PPM): 22.0
Gain ([1]; Days 22-28, 10 PPM): 21.2
average daily gain (ADG) over the course of the study, trend ([1]; FIG. 5A): increased
fat free lean gain per day, trend ([1]; FIG. 5C): increased
ADG for days 21-28, trend ([1]; FIG. 5D): dramatically increased
improvement in lean percent ([1]; SARM-treated pigs vs control): ≤ 2%
improvement in pounds of fat free lean ([1]; SARM-treated pigs vs control): ≤ 2%
increase in loin eye area (LEA) ([1]; SARM-treated pigs vs control): ≤ 4%
1st rib fat ([1]; Table 6, 1 ppm): 1.47 in
10th rib fat ([1]; Table 6, 1 ppm): 0.78 in
Dress ([1]; Table 6, 1 ppm): 69.6%
Fat free lean ([1]; Table 6, 1 ppm): 106.9 lb
Heart Wt ([1]; Table 6, 1 ppm): 1.04 lb
Kidney Wt ([1]; Table 6, 1 ppm): 1.2 lb
LEA ([1]; Table 6, 1 ppm): 7.26 in^2
Last lumbar fat (row head printed only as 'in') ([1]; Table 6, 1 ppm): 0.77 in
Last rib fat ([1]; Table 6, 1 ppm): 0.9 in
Lean ([1]; Table 6, 1 ppm): 53.2%
Liver Wt ([1]; Table 6, 1 ppm): 4.58 lb
1st rib fat ([1]; Table 6, 3 ppm): 1.48 in
10th rib fat ([1]; Table 6, 3 ppm): 0.8 in
Dress ([1]; Table 6, 3 ppm): 69.3%
Fat free lean ([1]; Table 6, 3 ppm): 105.5 lb
Heart Wt ([1]; Table 6, 3 ppm): 1.07 lb
Kidney Wt ([1]; Table 6, 3 ppm): 1.18 lb
LEA ([1]; Table 6, 3 ppm): 7.22 in^2
Last lumbar fat (row head printed only as 'in') ([1]; Table 6, 3 ppm): 0.82 in
Last rib fat ([1]; Table 6, 3 ppm): 0.91 in
Lean ([1]; Table 6, 3 ppm): 52.9%
Liver Wt ([1]; Table 6, 3 ppm): 4.95 lb
1st rib fat ([1]; Table 6, 10 ppm): 1.43 in
10th rib fat ([1]; Table 6, 10 ppm): 0.74 in
Dress ([1]; Table 6, 10 ppm): 70%
Fat free lean ([1]; Table 6, 10 ppm): 106.7 lb
Heart Wt ([1]; Table 6, 10 ppm): 1.01 lb
Kidney Wt ([1]; Table 6, 10 ppm): 1.16 lb
LEA ([1]; Table 6, 10 ppm): 7.59 in^2
Last lumbar fat (row head printed only as 'in') ([1]; Table 6, 10 ppm): 0.74 in
Last rib fat ([1]; Table 6, 10 ppm): 0.86 in
Lean ([1]; Table 6, 10 ppm): 54.3%
Liver Wt ([1]; Table 6, 10 ppm): 4.84 lb
1st rib fat ([1]; Table 7, 1 PPM): 1.47
10th rib fat ([1]; Table 7, 1 PPM): 0.780
Dress % ([1]; Table 7, 1 PPM): 70%
Heart Wt ([1]; Table 7, 1 PPM): 1.04
Kidney Wt ([1]; Table 7, 1 PPM): 1.20
Last lumbar fat ([1]; Table 7, 1 PPM): 0.770
Last rib fat ([1]; Table 7, 1 PPM): 0.900
Liver Wt ([1]; Table 7, 1 PPM): 4.58
1st rib fat ([1]; Table 7, 3 PPM): 1.48
10th rib fat ([1]; Table 7, 3 PPM): 0.800
Dress % ([1]; Table 7, 3 PPM): 69%
Heart Wt ([1]; Table 7, 3 PPM): 1.07
Kidney Wt ([1]; Table 7, 3 PPM): 1.18
Last lumbar fat ([1]; Table 7, 3 PPM): 0.815
Last rib fat ([1]; Table 7, 3 PPM): 0.905
Liver Wt ([1]; Table 7, 3 PPM): 4.95
1st rib fat ([1]; Table 7, 10 PPM): 1.43
10th rib fat ([1]; Table 7, 10 PPM): 0.735
Dress % ([1]; Table 7, 10 PPM): 70%
Heart Wt ([1]; Table 7, 10 PPM): 1.01
Kidney Wt ([1]; Table 7, 10 PPM): 1.16
Last lumbar fat ([1]; Table 7, 10 PPM): 0.740
Last rib fat ([1]; Table 7, 10 PPM): 0.855
Liver Wt ([1]; Table 7, 10 PPM): 4.84
lb FFL ([1]; Table 7, 1 PPM): 107 lb
lb FFL ([1]; Table 7, 3 PPM): 106 lb
lb FFL ([1]; Table 7, 10 PPM): 107 lb
LEA ([1]; Table 7, loin eye area, 1 PPM): 7.26
LEA ([1]; Table 7, loin eye area, 3 PPM): 7.22
LEA ([1]; Table 7, loin eye area, 10 PPM): 7.59
L side ([1]; 1 PPM): 98.0
R side ([1]; 1 PPM): 103
L side ([1]; 3 PPM): 97.7
R side ([1]; 3 PPM): 102
L side ([1]; 10 PPM): 96.8
R side ([1]; 10 PPM): 99.8
lbs FFL/D ([1]; 1 PPM): 0.822 lbs/D
lbs FFL/D ([1]; 3 PPM): 0.774 lbs/D
lbs FFL/D ([1]; 10 PPM): 0.814 lbs/D
Day 0-7 F:G, effect of treatment ([1]; linear contrast): significantly increased
Day 8-14 average daily feed intake (ADFI), effect of treatment ([1]; linear contrast): decreased
carcass crude fat, effect of feeding ([1]; pig, in vivo): reducing
IC50 [2]: > 20 µM
